# Measurements published in ChEMBL document CHEMBL4699544, “Design and synthesis of Coenzyme A analogues as Aurora kinase A inhibitors: An exploration of the roles of the pyrophosphate and pantetheine moieties” (Bioorg Med Chem, 2020).
# Biological target: T1, Aurora kinase A (Homo sapiens, UniProt O14965)
# T1 sequence (O14965 whole entry): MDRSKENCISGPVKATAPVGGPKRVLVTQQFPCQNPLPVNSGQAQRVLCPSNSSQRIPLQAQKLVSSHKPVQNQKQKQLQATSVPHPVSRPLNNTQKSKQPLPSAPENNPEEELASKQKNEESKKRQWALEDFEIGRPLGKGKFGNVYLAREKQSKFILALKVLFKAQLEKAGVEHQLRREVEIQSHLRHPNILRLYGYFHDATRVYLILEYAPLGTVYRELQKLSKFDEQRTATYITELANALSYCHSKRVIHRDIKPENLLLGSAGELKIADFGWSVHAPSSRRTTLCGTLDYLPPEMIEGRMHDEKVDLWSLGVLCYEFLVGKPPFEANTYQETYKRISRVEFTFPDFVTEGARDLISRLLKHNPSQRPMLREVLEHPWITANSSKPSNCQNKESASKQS
# Assay: Inhibition of recombinant Aurora A (unknown origin) using myelin basic protein as substrate incubated for 30 mins in presence or absence of DTT by [gamma-33P]-ATP based radioactive filter binding assay
row,Structure (SMILES),IC50 [µM]
1,Nc1ncnc2c1ncn2[C@H]1O[C@@H](CNC(=O)CC(=O)O)[C@H](O)[C@@H]1O,910
2,CC(C)(COP(=O)(O)OP(=O)(O)OC[C@@H]1O[C@H](n2cnc3c(N)ncnc32)[C@@H](O)[C@H]1O)[C@H](O)C(=O)NCCC(=O)NCCS,17
3,Nc1ncnc2c1ncn2[C@H]1O[C@@H](COC(=O)CC(=O)O)[C@H](O)[C@@H]1O,420
4,CC(C)(COP(=O)(O)OP(=O)(O)OC[C@@H]1O[C@H](n2cnc3c(N)ncnc32)[C@@H](O)[C@H]1OP(=O)(O)O)[C@H](O)C(=O)NCCC(=O)NCCS,5
5,CC(C)(COC(=O)CCC(=O)OC[C@@H]1O[C@H](n2cnc3c(N)ncnc32)[C@@H](O)[C@H]1O)[C@@H](O)C(=O)NCCC(=O)NCCS,83
6,CCNC(=O)CCNC(=O)[C@@H](O)C(C)(C)COP(=O)(O)OP(=O)(O)OC[C@@H]1O[C@H](n2cnc3c(N)ncnc32)[C@@H](O)[C@H]1OP(=O)(O)O,160
7,CC(C)(C)COC(=O)CCC(=O)OC[C@@H]1O[C@H](n2cnc3c(N)ncnc32)[C@@H](O)[C@H]1O,430
8,CCCNC(=O)CCNC(=O)[C@H](O)C(C)(C)COC(=O)CCCC(=O)OC[C@@H]1O[C@H](n2cnc3c(N)ncnc32)[C@@H](O)[C@H]1O,542
9,CNC(=O)CCNC(=O)[C@H](O)C(C)(C)COC(=O)CCC(=O)OC[C@@H]1O[C@H](n2cnc3c(N)ncnc32)[C@@H](O)[C@H]1O,1400
10,CCCNC(=O)CCNC(=O)[C@H](O)C(C)(C)COC(=O)CCC(=O)OC[C@@H]1O[C@H](n2cnc3c(N)ncnc32)[C@@H](O)[C@H]1O,497
11,CCCNC(=O)CCNC(=O)[C@H](O)C(C)(C)COC(=O)CC(=O)NC[C@@H]1O[C@H](n2cnc3c(N)ncnc32)[C@@H](O)[C@H]1O,1100
12,CNC(=O)[C@H](O)C(C)(C)COC(=O)CCC(=O)OC[C@@H]1O[C@H](n2cnc3c(N)ncnc32)[C@@H](O)[C@H]1O,1300
13,CCCNC(=O)CCNC(=O)[C@H](O)C(C)(C)COC(=O)CC(=O)OC[C@@H]1O[C@H](n2cnc3c(N)ncnc32)[C@@H](O)[C@H]1O,1300

# Biological target: T1, Aurora kinase A
# Assay: Inhibition of recombinant Aurora A (unknown origin) using myelin basic protein as substrate incubated for 30 mins in presence of DTT by [gamma-33P]-ATP based radioactive filter binding assay
row,Structure (SMILES),IC50 [µM]
1,CC(C)(COC(=O)CCC(=O)OC[C@@H]1O[C@H](n2cnc3c(N)ncnc32)[C@@H](O)[C@H]1O)[C@@H](O)C(=O)NCCC(=O)NCCS,117

# Biological target: T1, Aurora kinase A
# Assay: Inhibition of recombinant Aurora A (unknown origin) using myelin basic protein as substrate incubated for 30 mins in presence of DTT by [gamma-33P]-ATP based radioactive filter binding assay
row,Structure (SMILES),IC50 [µM]
1,CC(C)(COC(=O)CCC(=O)OC[C@@H]1O[C@H](n2cnc3c(N)ncnc32)[C@@H](O)[C@H]1O)[C@@H](O)C(=O)NCCC(=O)NCCS,117
